This is an account of results in patent US8709454B2, “Combination of a microorganism and a phytosphingosine derivative, composition, methods of use” (L'Oreal, priority 2009, dated 2014).

Assay type in all cases: cell-based
Common to all, as to conditions: topical 50 μl, 6 hours after treatment, related to G3PDH messenger

In assay [1] the test system is cytokeratin 10 (K10) gene. Put plainly: RT-qPCR gene expression in Episkin reconstructed epidermis: cytokeratin 10. As for the experimental part: (§1) The effects of the following four compositions were tested on the differentiation of Episkin® reconstructed epidermis. • A: formulation support (ethyl alcohol (3%) and water (97%)), • B: lysate (ethyl alcohol (3%), water (87%), lysate (10%)), • C: phytosphingosine salicylate (ethyl alcohol (3%), water (96.998%), phytosphingosine salicylate (0.002%)), and • D: combination in accordance with the invention=(0.002% phytosphingosine salicylate+10% lysate+ethyl alcohol (3%)+water (86.998%)).
(§2) J6 Episkin® reconstructed epidermis were placed in 12-well plates containing 2 ml of a maintenance medium and cultured at 37° C. and 5% CO2 for 24 hours. […]
(§3) These effects were characterized by analysing the expression of the cytokeratin 6B (K6B), cytokeratin 10 (K10) and involucrin (INV) genes using a real-time PCR method (quantitative PCR, qPCR) 6 hours after treatment.
(§4) The expression of the markers selected was evaluated by RT-qPCR on the messenger RNA extracted from the Episkin® reconstructed epidermis of each treatment (the duplicates were pooled before RNA extraction) 6, 24 and 48 hours after treatment. […]
(§5) The incorporation of fluorescence into the amplified DNA is measured continuously during the PCR cycles. This system makes it possible to obtain curves of the fluorescence measurement as a function of the PCR cycles and thus to evaluate a relative expression value for each marker. […]
On the technique in general: Quantitative PCR measures a nucleic acid by following its amplification.

Assay [2] deals with cytokeratin 6B (K6B) gene. Description: RT-qPCR gene expression in Episkin reconstructed epidermis: cytokeratin 6B. On the procedure:
as §1, §2, §3, §4, §5

For a further assay, the system named is involucrin (INV) gene. Description: RT-qPCR gene expression in Episkin reconstructed epidermis: involucrin. As for the experimental part:
as §1, §2, §3, §4, §5

For the substance “phytosphingosine salicylate [Composition C]”, the K10 expression in assay [1] is on record as 122 % of the untreated control. The K6B expression in assay [2] is listed as 158 % of the untreated control. In addition, in the assay on involucrin (INV) gene, the INV expression is listed as 146 % of the untreated control.
